Data published in US12521415B2, “Accelerating repair of mucosal injury using gold(III) compounds” (University of Kentucky Research Foundation, priority 2020, dated 2026).

How the values were obtained:
[1] = tested on: normal colonocytes (NCM460); test: Mitochondrial uptake of AuPhos by gold content (graphite furnace atomic absorption spectroscopy) in NCM460; assay type: cell-based, human; conditions: normal colon epithelial cells (NCM460)
Source text: FIGS. 8A-8J present properties of AuPhos. FIG. 8A includes a chemical structure of AuPhos. FIG. 8B includes extrapolated AuPhos-induced OCR (complex I) in liver mitochondria. […] FIG. 8E provides weight change in AuPhos-treated mice over time. FIG. 8F presents stability of AuPhos in PBS and DMEM. FIG. 8G presents stability of AuPhos in PBS and DMEM. FIG. 8H includes an AuPhos-induced Heat map of DEG (left Panel), obtained using log 2(Fold Change) and p-Value <0.00001 thresholds in MDA-MB-231(107) cells (n=2), and the top six hits of KEGG analysis (right panel). FIG. 8I presents biodistribution and pharmacokinetics of AuPhos in different tissues; Colon, Small bowel, Lung, Kidney, Spleen, Liver, Heart and Blood after single dose (oral, 25 mg/kg) administration of AuPhos at 6 h, 12 h and 24 h. FIG. 8J presents biodistribution and pharmacokinetics of AuPhos in different tissues stool after single dose (oral, 25 mg/kg) administration of AuPhos at 6 h, 12 h and 24 h.
FIGS. 16A-16E illustrate the pharmacokinetics and effects of AuPhos on mitochondrial bioenergetics. FIG. 16A. Biodistribution and pharmacokinetics of AuPhos in different tissues; Colon, Small bowel, Spleen, Liver after a single intragastric (i.g.) gavage (25 mg/kg) with measurements of AuPhos tissue levels (graphite furnace atomic absorption spectroscopy) at times indicated. FIG. 16B. […]

[2] = tested on: TNF-stimulated colonic NCM460 cells; test: Western blot of TNF-stimulated NCM460 cells treated with AuPhos (mitochondrial biogenesis, PI3K markers); assay type: cell-based, human; conditions: WB
Description: FIG. 14A Normal human colonic biopsies were incubated a^t 4° C. with AuPhos×3 hrs and membrane fractions examined for mitochondrial complexes expression by WB. FIG. 14B TNF-stimulated colonic NCM460 cells were treated overnight with AuPhos at concentrations indicated. WB for markers indicated are shown in nuclear and membranous protein fractions. FIG. 14C Markers of PI3K pathway were probed in nuclear and cytosolic fractions of AuPhos-treated NCM460 cells (treated with TNF). FIG. 14D NCM460 cell were treated overnight with TNF and probed for the ROS-induced P-PTEN, which inactivates PTEN and activates PI3K.
The effects of AuPhos in Px-accelerated IL-10KO mice by beginning treatment on D21 (7D after cessation of Px) when colitis is severe is shown in FIG. 13A. AuPhos-induced mitochondrial biogenesis and PI3K signaling. To examine the effect of AuPhos on mitochondrial biogenesis in human colonic IEC, fresh biopsies were cultured with a dose range of AuPhos and examined (after 3 h) for mitochondrial complex levels. […] Lastly, TNF stimulates p-PTEN in NCM460 cells indicative of ROS-induced PTEN inactivation as published. It is likely that induction of mtROS by AuPhos enhances PI3K signaling which promotes mitochondrial biogenesis (PGC1α and TFAM) as well as cooperate with Wnt to enhance β-catenin signaling in fissioning crypts.

[Cl][Au]1([c]2ccccc2Cc2ccccn2)[P](c2ccccc2)(c2ccccc2)c2ccccc2[P]1(c1ccccc1)c1ccccc1 [AuPhos]
mitochondrial localization (gold content) [1]: localizes in the mitochondria
markers of PI3K [pAkt and pS6 kinase (pS6)] ([2]; NCM460 cells treated with TNF): induced markers of PI3K
PGC1a and TFAM protein ([2]; NCM460 cells, TNF-stimulated, overnight AuPhos): induces PGC1a and TFAM
nuclear pp-catenin5 ([2]; NCM460 cells): induction of nuclear pp-catenin5
